Assay type in all cases: physicochemical
One series is described as follows: DSC. The method, then: DSC experiments were carried out with a Perkin Elmer DSC 7 using closed Au crucibles with a heating range between −50 to 250° C. and a heating rate of 10 or 20° C./min.
On the technique in general: Differential scanning calorimetry records heat flow against a reference as temperature is scanned.

The next series in a line: TG-FTIR. The method, then:
TG-FTIR experiments were conducted with a Thermo-Microbalance TG-209 (Netzsch) equipped with a FT-IR Spectrometer Vector 22 (Bruker) using Al crucible (open or with microhole) under N2 atmosphere with a heating range between 25 and 250° C. and a heating rate of 10° C./min.

Series [1] is described as follows: DVS (dynamic vapor sorption). How it is done: DVS experiments were carried out with a Projekt Messtechnik SPS 11-100n multi-sample water vapor sorption analyzer. The sample was allowed to equilibrate at 50% r.h. before starting a pre-defined humidity program. The program was: • 2 h at 50% r.h. • 50 to 0% r.h. (5%/h) • 5 h at 0% r.h. • 0 to 95% r.h (5%/h) • 5 h at 95% r.h. • 95 to 50% (5%/h) • 2 h at 50% r.h.

Series [2] is described as follows: Direct dissolution of lurbinectedin at 0.5 mg/mL in 0.03 M sodium lactate buffer pH 4. Conditions: 0.5 mg/mL in 0.03 M sodium lactate buffer pH 4, in 2 hours. The text has this: In embodiments, the lurbinectedin to be dissolved is at least partially crystalline. The lurbinectedin to be dissolved may be in the solid state form(s) described herein.

Structures are written as SMILES.

Consider `COc1ccc2[nH]c3c(c2c1)CCN[C@]31CS[C@@H]2c3c(OC(C)=O)c(C)c4c(c3[C@H](COC1=O)N1[C@@H]2[C@H]2c3c(cc(C)c(OC)c3O)C[C@@H]([C@@H]1O)N2C)OCO4` [Form B of lurbinectedin], for which the “Temperature at which degradation begins by DSC” value in “DSC” is “above 130 °C”. Moreover, in the series “TG-FTIR”, the “Degradation temperature by TG-FTIR” value is “above 150 °C” and the “Release of water by TG-FTIR” value is on record as 2.6%. Moreover, in series [1], the “Deliquescence by DVS” value was “not deliquescent” and the “Hygroscopicity by DVS” value is given as “hygroscopic”. In addition, the “DVS mass change Δm” value in series [1] (50 to 96% r.h.) is reported as 4%. Also, the “Fraction of the target concentration reached” value in series [2] is listed as 60-70%.

Source of the values: US12714706B2, “Methods of treating small cell lung cancer with lurbinectedin formulations” (PHARMA MAR, S.A., priority 2019, dated 2026).
